Measurements reported in BindingDB's records for doi:10.1021/jm020572p (University of North Carolina at Chapel Hill, 2003).
pKi: −log10 of the molar value.

Tests used:
[1] = biological target: T1, Muscarinic acetylcholine receptor M5 (Homo sapiens, UniProt P08912); assay: Binding affinity of compound was determined towards human Muscarinic acetylcholine receptor M5 using [3H]QNB radioligand
T1 sequence (P08912 whole entry): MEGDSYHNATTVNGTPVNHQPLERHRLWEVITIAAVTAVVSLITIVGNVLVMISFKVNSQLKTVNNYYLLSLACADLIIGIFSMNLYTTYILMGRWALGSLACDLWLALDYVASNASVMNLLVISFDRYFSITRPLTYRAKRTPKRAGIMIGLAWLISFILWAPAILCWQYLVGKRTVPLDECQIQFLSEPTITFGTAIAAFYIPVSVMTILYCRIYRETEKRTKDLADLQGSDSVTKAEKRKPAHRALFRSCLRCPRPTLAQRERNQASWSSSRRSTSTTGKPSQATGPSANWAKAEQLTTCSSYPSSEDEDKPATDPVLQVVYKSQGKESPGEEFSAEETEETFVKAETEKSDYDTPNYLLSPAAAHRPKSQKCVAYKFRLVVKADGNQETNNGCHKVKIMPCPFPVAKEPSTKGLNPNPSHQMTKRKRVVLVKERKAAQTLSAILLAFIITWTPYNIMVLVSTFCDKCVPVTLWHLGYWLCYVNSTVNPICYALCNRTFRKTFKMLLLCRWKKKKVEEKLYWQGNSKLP

[2] = biological target: T2, Muscarinic acetylcholine receptor M2 (Homo sapiens, UniProt P08172); assay: Binding affinity of compound was determined towards human Muscarinic acetylcholine receptor M2 using [3H]QNB radioligand
T2 sequence (P08172 whole entry): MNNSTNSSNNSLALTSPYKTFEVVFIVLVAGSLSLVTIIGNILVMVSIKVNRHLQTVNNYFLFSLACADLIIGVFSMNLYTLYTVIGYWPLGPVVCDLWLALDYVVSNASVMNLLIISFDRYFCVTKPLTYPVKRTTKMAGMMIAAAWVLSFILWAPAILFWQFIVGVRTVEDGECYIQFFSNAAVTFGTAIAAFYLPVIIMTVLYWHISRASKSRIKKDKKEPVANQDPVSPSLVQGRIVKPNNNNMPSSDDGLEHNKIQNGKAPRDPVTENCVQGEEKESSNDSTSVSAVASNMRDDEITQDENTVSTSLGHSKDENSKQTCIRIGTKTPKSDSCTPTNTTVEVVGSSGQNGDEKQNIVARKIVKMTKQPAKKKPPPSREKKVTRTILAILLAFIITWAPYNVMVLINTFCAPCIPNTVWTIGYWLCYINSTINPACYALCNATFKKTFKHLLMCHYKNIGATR

pKi [1]: 6.25
pKi [2]: 7.10
Compound: CCOC(=O)C1CN2CC(CCC2COCc2ccccc2)C1=O (stereo not drawn) [exo-8-Benzyloxymethyl-4-hydroxy-1-aza-bicyclo[3.3.1]non-3-ene-3-carboxylic acid ethyl ester]
